Source: patent US9192662B2, “Methods using immunomodulatory compounds for modulating level of CD59” (Celgene Corporation, priority 2008, dated 2015)

Assays:
CD59 mRNA [1] = assay: CD59 mRNA levels in alpha-CD3/CD28 stimulated T cells (Affymetrix gene array); assay type: cell-based, Human; details: CD4+ T cells, anti-CD3/anti-CD28 stimulation; 3, 6, 12 and 24 hours; lenalidomide 10 μM, CC-4047 1 μM; FIG. 3
Protocol: Human PBMCs were isolated from buffy coat from four healthy volunteers using ficoll gradient centrifugation CD4+ T cells were isolated from each batch of PBMCs using anti-CD4 microbeads (Miltenyi). Cells were treated with 0.1% DMSO or 4-amino-2-(2,6-dioxopiperidin-3-yl)isoindoline-1,3-dione (1 μM) 1 or lenalidomide (10 μM) in the presence or absence of anti-CD3/anti-CD28 stimulation over a time course which included 3, 6, 12 and 24 hours of treatment. Cells were harvested at indicated times and RNA isolated as described above. Methods for Affymetrix gene array analysis were as described above.

CD59 mRNA [2] = assay: CD59 mRNA levels in several in vitro cellular models in Affymetrix gene array experiments; assay type: cell-based; details: primary T cells, primary monocytes, NK cells, cultured PBMCs from normal and CLL patients, Namalwa Burkitt's lymphoma cell line
Source text: In certain embodiments, the immunomodulatory compounds provided herein, such as 3-(4-amino-1-oxo-1,3-dihydro-isoindol-2-yl-piperidine-2,6-dione (lenalidomide), 4-amino-2-(2,6-dioxopiperidin-3-yl)isoindoline-1,3-dione or N-{[2-(2,6-dioxo(3-piperidyl)-1,3-dioxoisoindolin-4-yl]methyl}cyclopropyl-carboxamide, induce increase in the mRNA levels of CD59 in several in vitro cellular models in Affymetrix gene array experiments (both primary cells and cell lines). In certain aspects, this increase is found in primary T cells, primary monocytes, NK cells, cultured PBMCs from normal and CLL patients, and the Namalwa Burkitt's lymphoma cell line.
Namalwa cells are cultured in RPM1 supplemented with 10% fetal bovine serum. Cells are treated with vehicle control (0.1% DMSO) or 4-amino-2-(2,6-dioxopiperidin-3-yl)isoindoline-1,3-dione (10 μM) or lenalidomide (10 μM) for 8 hours and 24 hours. Cells are harvested and RNA isolated as described above. Methods for Affymetrix gene array analysis are as described above.
PBMCs are isolated from whole blood from CLL patients (MD Anderson) using ficoll gradient centrifugation. Cells are treated with 4-amino-2-(2,6-dioxopiperidin-3-yl)isoindoline-1,3-dione (1 μM), lenalidomide (10 μM) or N-{[2-(2,6-dioxo(3-piperidyl)-1,3-dioxoisoindolin-4-yl]methyl}cyclopropyl-carboxamide (10 μM) for 24 and 48 hours. Samples from five CLL patients are analyzed individually. Cells are harvested and RNA isolated as described above. Methods for Affymetrix gene array analysis are as described above.

CD59 mRNA [3] = assay: CD59 mRNA levels in unstimulated monocytes (Affymetrix gene array); assay type: cell-based, Human; details: CD14+ monocytes from healthy volunteers, after treatment with 10 nM or more, FIG. 2
Protocol: Human PBMCs were isolated from buffy coat from three healthy volunteers using ficoll gradient centrifugation. CD14+ monocytes were isolated from each batch of PBMCs using anti-CD14 microbeads (Miltenyi). Cells were treated with 0.1% DMSO or 4-amino-2-(2,6-dioxopiperidin-3-yl)isoindoline-1,3-dione (1 μM) 1 or lenalidomide (10 μM) for 30 minutes. Thereafter the cells were either left unstimulated or stimulated with 100 ng/ml LPS and incubated for 6 hours. After the incubation period the cells were lysed in TRI reagent (Sigma) for RNA isolation. The RNAs isolated using the TRI reagent RNA isolation protocol, were column cleaned (Qiagen) and the RNAs kept separate from the donors, were pooled for cDNA synthesis. Briefly, double-stranded cDNA will be synthesized using 2-5 μg of total RNA. Biotin-labeled cRNA will be synthesized using MessageAmp aRNA kit (Ambion), 15 μg of cRNA fragmented and hybridized to each Affymetrix human UI 33A array. The above procedures will be done twice for each RNA sample to obtain replicate biotin-labeled probes. Data analysis was performed using GeneSpring (Agilent).

CD59 mRNA [4] = assay: CD59 mRNA levels in PBMCs (Affymetrix gene array); assay type: cell-based, Human; details: PBMCs from healthy volunteers; 24, 48 and 72 hours; lenalidomide 10 μM, CC-4047 1 μM; FIG. 1
Protocol: Human PBMCs were isolated from buffy coat from healthy volunteers using ficoll gradient centrifugation. PBMCs were treated with 4-amino-2-(2,6-dioxopiperidin-3-yl)isoindoline-1,3-dione (1 μM) or lenalidomide (10 μM) or vehicle control (0.1% DMSO) for 24 hours, 48 hours, and 72 hours. Cells were harvested and RNA isolated as above. Methods for Affymetrix gene array analysis were as described above.

Nc1cccc2c1C(=O)N(C1CCC(=O)NC1=O)C2=O (stereo not drawn) [CC-4047, 4-amino-2-(2,6-dioxopiperidin-3-yl)isoindoline-1,3-dione]
increase: CD59 mRNA levels in α-cd3/cd28 stimulated T cells (CD59 mRNA [1]) | mRNA levels of CD59 in several in vitro cellular models (CD59 mRNA [2]) | CD59 mRNA levels in unstimulated monocytes (CD59 mRNA [3]) | CD59 mRNA levels in PBMC cells (CD59 mRNA [4])

O=C1CCC(N2C(=O)c3cccc(CNC(=O)C4CC4)c3C2=O)C(=O)N1 (stereo not drawn) [N-{[2-(2,6-dioxo(3-piperidyl)-1,3-dioxoisoindolin-4-yl]methyl}cyclopropyl-carboxamide]
increase: mRNA levels of CD59 in several in vitro cellular models (CD59 mRNA [2])

Nc1cccc2c1CN(C1CCC(=O)NC1=O)C2=O (stereo not drawn) [lenalidomide, 3-(4-amino-1-oxo-1,3-dihydro-isoindol-2-yl)-piperidine-2,6-dione]
increase: CD59 mRNA levels in α-cd3/cd28 stimulated T cells (CD59 mRNA [1]) | mRNA levels of CD59 in several in vitro cellular models (CD59 mRNA [2]) | CD59 mRNA levels in unstimulated monocytes (CD59 mRNA [3]) | CD59 mRNA levels in PBMC cells (CD59 mRNA [4])
